# Where a name gives a salt, the structure may show the parent alone.
# What was measured:
# cyclin D1 = assay: Immunochemical staining of tumor tissue, Mia-PaCa2 transplanted mouse model: cyclin D1; format: in vivo; settings: 10 mpk, 30 mpk, Mia-PaCa2 transplanted mice
# Protocol: (§1) FIG. 3 illustrates the results obtained by immunochemical staining of the tumor tissue for a mouse model transplanted with the Mia-PaCa2 cell line, which is a pancreatic cancer cell line of a mutation RONΔ160 type, having received Example 1 (WM-S1-030) at a dose of 10 mpk or 30 mpk and the positive control (BMS-777607) at a dose of 30 mpk.
# (§2) Example 1 (WM-S1-030) was administered at each concentration (10 mpk, 30 mpk) and positive control 1 (BMS-777607) was administered at a dose of 30 mpk to a mouse model transplanted with the Mia-PaCa2 cell line, which is a pancreatic cancer cell line of a mutation RONΔ160 type. The tumor was extracted, and the expression changes of the proteins were analyzed by immunochemical staining.
# (§3) Specifically, paraffin slides were prepared using tissues isolated from the sacrificed mice. The tissue sections were deparaffinized and rehydrated, immersed in the target recovery buffer 1× (ScyTek Laboratories, Cat #CBB999) and heated for 15 minutes to perform an antigen recovery process. After the reaction, the tissue sections were washed in Tris buffered saline-0.05% Tween 20 (TBS-T) (T&I, BTT-9310) for 5 minutes, and then the reaction was performed with a non-specific antibody response blocking reagent (vector, SP-5035) for 1 hour. […]
# [1] = tested on: Mia-PaCa2 (mRONΔ160) pancreatic cancer cell line transplanted tumor; assay: Tumor growth inhibition in Mia-PaCa2 transplanted mouse model; format: in vivo; settings: orally once a day for 4 weeks; for Tumor growth inhibition rate (TGI, %): 30 mg/kg, BALB/c-nude mice with Mia-PaCa2 tumor; for tumor growth inhibition (in words): 30 mpk, Mia-PaCa2 transplanted mice
# Text: FIG. 2 illustrates the results obtained by confirming the tumor growth rate for a mouse model transplanted with the Mia-PaCa2 cell line, which is a pancreatic cancer cell line of a mutation RONΔ160 type, having received Example 1 (WM-S1-030) at a dose of 30 mpk and positive control 1 (BMS-777607) at a dose of 30 mpk. It was confirmed whether tumor growth was inhibited by administering Example 1 (WM-S1-030) at a dose of 30 mpk to a mouse model transplanted with Mia-PaCa2, which is a pancreatic cancer cell line of a mutation RONΔ160 type. Specifically, 5-week-old female BALB/c-nude mice were purchased and acclimatized for 1 week. Thereafter, Mia-PaCa2 (2×10^6 cells/mouse), a pancreatic cancer cell line of a mutation RONΔ160 type, was diluted in PBS (phosphate buffered saline) and Matrigel, and 100 μL was injected subcutaneously into the right dorsal side of the mouse. When the size of the tumor reached about 100 mm^3, the negative control (excipient) and Example 1 were orally administered. In this case, positive control 1 (BMS-777607) was administered at a dose of 30 mpk. The drug was administered once a day for 4 weeks, and the tumor size and body weight were measured twice a week. After the drug administration was completed, the mice were euthanized, the tumor was extracted, and the weight was measured.
# [2] = tested on: Panc-1 pancreatic cancer cell line (mutation RONΔ155 type); assay: MTS assay, cell growth inhibitory ability, Panc-1; format: cell-based; settings: Homo sapiens; Panc-1, RON mutation Δ155, cultured 72 hours
# Protocol: (§4) In order to compare and confirm the cell growth inhibitory ability of Examples 1 (WM-S1-030) to 5 and positive control 1 (BMS-777607) in two pancreatic cancer cell lines ofa mutation RONΔ155 type (Panc-1 and Capan-1) and one pancreatic cancer cell line of a mutation RONΔ160 type (Mia-PaCa2), MTS assay was carried out.
# (§5) For MTS assay, 1,000 cells of each pancreatic cancer cell line per well were seeded in a 96-well-plate, and 24 hours later, treated with the compounds of Examples 1 to 5 and positive control 1 at various concentrations (0.000001 μM to 10 μM) in 100 μL of 10% FBS-RPMI medium (Welgene) per each well. Thereafter, the cells were cultured for 72 hours. 20 μL of MTS solution (Promega) was added and cultured for 2 hours, and then absorbance was measured at 490 nm. The cytotoxicity was analyzed by deriving the IC50 for the compounds of Examples 1 to 5 and positive control 1 using GraphPad Prism™ 5.
# cleaved caspase 3 = assay: Immunochemical staining of tumor tissue, Mia-PaCa2 transplanted mouse model: cleaved caspase 3; format: in vivo; settings: 10 mpk, 30 mpk, Mia-PaCa2 transplanted mice
# Protocol: as §1, §2, §3
# pTyr-mRON = assay: Immunochemical staining of tumor tissue, Mia-PaCa2 transplanted mouse model: pTyr-mRON; format: in vivo; settings: 10 mpk, 30 mpk, Mia-PaCa2 transplanted mice
# Protocol: as §1, §2, §3
# [3] = tested on: Mia-PaCa2 pancreatic cancer cell line (mutation RONΔ160 type); assay: MTS assay, cell growth inhibitory ability, Mia-PaCa2; format: cell-based; settings: Homo sapiens; Mia-PaCa-2, RON mutation Δ160, cultured 72 hours
# Protocol: as §4, §5
# [4] = tested on: Capan-1 pancreatic cancer cell line (mutation RONΔ155 type); assay: MTS assay, cell growth inhibitory ability, Capan-1; format: cell-based; settings: Homo sapiens; Capan-1, RON mutation Δ155, cultured 72 hours
# Protocol: as §4, §5
# [5] = tested on: pancreatic cancer cell lines of mutation RONΔ155 type (Panc-1 and Capan-1) and RONΔ160 type (Mia-PaCa2); assay: MTS assay, text summary over the three pancreatic cancer cell lines; format: cell-based; settings: Panc-1, Capan-1, Mia-PaCa2; 0.000001 μM to 10 μM, 72 hours
# Protocol: as §4, §5
# [6] = tested on: pancreatic cancer cell lines of a mutation RON type (Panc-1, Capan-1, Mia-PaCa2); assay: Cell killing efficacy, trypan blue exclusion assay; format: cell-based; settings: 1 μM and 5 μM, 48 hours
# Protocol: FIGS. 1A to IC illustrate the results obtained by comparing and confirming the cell killing efficacy for the Panc-1 and Capan-1 cell lines, which are pancreatic cancer cell lines of a mutation RONΔ155 type, and the Mia-PaCa2 cell line, which is a pancreatic cancer cell line of a mutation RONΔ160 type, having been treated with the compounds of Examples 1 (WM-S1-030) to 5 and positive control 1 (BMS-777607) at a concentration of 1 μM and 5 μM, respectively.
# Two pancreatic cancer cell lines of a mutation RONΔ155 type (Panc-1 and Capan-1) and one pancreatic cancer cell line of a mutation RONΔ160 type (Mia-PaCa2) were dispensed, and 24 hours later, treated with 1 μM and 5 μM of the compounds of Examples 1 (WM-S1-030) to 5 and positive control 1 (BMS-777607), respectively, while replacing the medium. After 48 hours, the cells and the cell fluid were harvested (1,500 rpm, 4 minutes), and live cells and dead cells were quantified through trypan blue (15250-061, Gibco) exclusion assay. Statistical analysis was performed using T-test in Excel.
SMILES,expression of cyclin D1 (PD marker) in tumor tissue (cyclin D1),"Tumor growth inhibition rate (TGI, %) [1] [%]",tumor growth inhibition (in words) [1],IC50 [2] [µM],expression of cleaved caspase 3 in tumor tissue (cleaved caspase 3),expression of pTyr-mRON in tumor tissue (pTyr-mRON),IC50 [3] [µM],IC50 [4] [µM],response to the drug / cell growth inhibition (MTS) [5],cell death / response to the drug (trypan blue exclusion) [6]
"CCOc1ccn(-c2ccc(F)cc2)c(=O)c1C(=O)Nc1ccc(Oc2ccnc3cc(-c4ccc(CN5CCOCC5)cn4)sc23)c(F)c1.Cl [Example 1, 4-ethoxy-N-[3-fluoro-4-({2-[5-(morpholinomethyl)pyridin-2-yl]thieno[3,2-b]pyridin-7-yl}oxy)phenyl]-1-(4-fluorophenyl)-2-oxo-1,2-dihydropyridine-3-carboxamide hydrochloride]","the expression of cyclin D1, a PD marker, was decreased",57.2 ± 3.1,tumor growth was significantly inhibited,2.44,the expression of cleaved caspase 3 was induced,the expression of pTyr-mRON was decreased,0.62,0.63,,
"CCOc1ccn(-c2ccccc2)c(=O)c1C(=O)Nc1ccc(Oc2ccnc3cc(-c4ccc(CNCCOC)cn4)sc23)c(F)c1 [Example 2, 4-ethoxy-N-(3-fluoro-4-{[2(5-{[(2-methoxyethyl)amino]methyl}pyridin-2-yl)thieno[3,2-b]pyridin-7-yl]oxy}phenyl)-2-oxo-1-phenyl-1,2-dihydropyridine-3-carboxamide hydrochloride]",,,,3.88,,,1.84,1.54,,
"CCOc1ccn(-c2ccccc2)c(=O)c1C(=O)Nc1ccc(Oc2ccnc3cc(-c4ccc(CN5CCN(C)CC5)cn4)sc23)c(F)c1 [Example 3, 4-ethoxy-N-{3-fluoro-4-[(2-(5-[(-methylpiperazin-1-yl)methyl]pyridin-2-yl)thieno[3,2-b]pyridin-7-yl)oxy]phenyl}-2-oxo-1-phenyl-1,2-dihydropyridine-3-carboxamide hydrochloride]",,,,1.09,,,0.25,0.37,,
"COc1cc2c(Oc3ccc(NC(=O)c4c5c(cn(-c6ccc(F)cc6)c4=O)CCO5)cc3F)ccnc2cc1OCCN1CCOCC1 [Example 4, N-(3-fluoro-4-{[6-methoxy-7-(2-morpholinoethoxy)quinolin-4-yl]oxy}phenyl)-5-(4-fluorophenyl)-6-oxo-2,3,5,6-tetrahydrofuro[3,2-c]pyridine-7-carboxamide]",,,,0.46,,,0.37,0.32,,
"COc1cc2c(Oc3ccc(NC(=O)c4c5c(cn(-c6ccc(F)cc6)c4=O)CCO5)cc3F)ccnc2cc1OCCCN1CC(C#N)C1 [Example 5, N-[4-({7-[3-(3-cyanoazetidin-1-yl)propoxy]-6-methoxyquinolin-4-yl}oxy)-3-fluorophenyl]-5-(4-fluorophenyl)-6-oxo-2,3,5,6-tetrahydrofuro[3,2-c]pyridine-7-carboxamide]",,,,0.31,,,0.15,0.17,,
"CCOc1ccn(-c2ccc(F)cc2)c(=O)c1C(=O)Nc1ccc(Oc2ccnc(N)c2Cl)c(F)c1 [Positive control 1, N-{4-[(2-amino-3-chloro-4-pyridinyl)oxy]-3-fluorophenyl}-4-ethoxy-1-(4-fluorophenyl)-2-oxo-1,2-dihydro-3-pyridinecarboxamide, reference compound]",,4.7 ± 7.4,tumor growth was inhibited relatively little,> 10,,,6.06,> 10,the response to the drug was low,the response to the drug was low

# — patent US20230242521A1, “PHARMACEUTICAL COMPOSITION FOR PREVENTING OR TREATING PANCREATIC CANCER ASSOCIATED WITH RON MUTATION AND METHOD USING SAME” (WELLMARKER BIO CO., LTD., priority 2020, published 2023)
